We go through 1 compound from patent US20100178316A1, “EXTENDED RELEASE OF BIOACTIVE MOLECULES FROM SILICONE HYDROGELS” (priority 2007, published 2010).

Common to all, as to type: physicochemical
Data set [1] in a line: Packaging test: drug lost from drug-loaded silicone hydrogel to PBS packaging solution. The settings on record: 0.1 mm thick GEL1, 1.75 cm diameter, loaded from drug-ethanol solution. The method, then:
(§1) Commercial contact lenses are typically packaged in about 1-1.5 ml of packaging solution such as PBS. To estimate the effects of packaging on drug release behavior of silicone hydrogel appliances, packaging tests were conducted. A 0.1 mm thick silicone hydrogel was cut into circular pieces of 1.75 cm diameter and a drug was loaded by soaking the silicone hydrogel in a drug-ethanol solution. A 0.1 mm thick piece of GEL1 was loaded with a drug by soaking in drug-ethanol solution of 6.4 mg/ml for timolol and 4.8 mg/ml for DXA. The GEL1 pieces were then blotted with wipes to remove excess drug-ethanol solution from the pieces. The pieces were dried in air overnight before conducting the packaging tests. The silicone hydrogels were then stored in 1 ml of PBS (packaging) solution in a sealed vials for 1.3 or 2 months, and subsequently the appliance was placed in 2 ml of fresh PBS solution. The release of the drug over time is plotted in FIG. 17 and FIG. 18 for timolol and DXA, respectively. For timolol, about 364 μg and 404 μg of drug were lost to the packaging solution for the appliance stored for 1.3 months and 2 months, respectively. The residual drug released into the fresh PBS solution at an average rate of 0.09 mg/(g of gel·day) for 20 days, and then at a lower rate for another 2 months as shown in FIG. 17. […]

Data set [2] in a line: Drug release experiments from ethanol-loaded silicone hydrogel pieces soaked in PBS. As to conditions: GEL1 to GEL4, 0.1-0.4 mm thick, loaded from 0.64 or 6.4 mg/mL ethanol solution. The method, then: Drugs were individually loaded into individual square pieces of the gels by soaking a gel in 2 or 2.5 mL of a drug-ethanol solution for a period of 3 hours. At the end of three hours the gel was taken out and excess drug-ethanol solution was blotted from the surface of the piece with wipes. The gels were dried in air overnight, and subsequently used for drug release experiments. Results of drug release experiment are given below for three drugs (dexamethasone (DX), dexamethasone acetate (DXA) and timolol) which were individually loaded into different gel pieces.
Drug release experiments were conducted by soaking the square shaped drug containing gel pieces, prepared as described in Example 1, in Dulbecco's phosphate buffered saline (PBS). The volume of the PBS was varied depending on the thickness of the gel to maintain a constant volume ratio of gel to PBS for all samples. The gels of 0.1 mm, 0.2 mm, and 0.4 mm thickness were soaked in 1.5 mL, 3 mL, 6 mL of PBS, respectively.
In like manner to Examples 1, 2 and 3, timolol release experiments were conducted with square pieces of the gels of three different thicknesses for the four different compositions prepared in Example 1 (GEL1 to GEL4), with two different drug loadings by varying the concentration of the drug-ethanol solution used. […]

Data set [3] in a line: Drug release into fresh PBS solution after packaging storage. The settings on record: 2 ml fresh PBS. The method, then:
as §1

Take `CC(C)(C)NC[C@H](O)COc1nsnc1N1CCOCC1` [timolol]: in data set [1] (stored in 1 ml PBS for 1.3 months), the “drug lost to the packaging solution” value was “about 364 μg”. The “drug lost to the packaging solution” value in data set [1] (stored in 1 ml PBS for 2 months) is about 404 µg. Moreover, in data set [2], the “initial burst release (in words)” value is given as “initial burst is small in each system” and the “release behaviour from gels into PBS (in words)” value is listed as “all gels release timolol over a long period of time”. For the same compound, the “further release at a lower rate, duration” value in data set [3] (0.1 mm thick GEL1 after packaging, after the first 20 days) is given as 2 months. The “average release rate of residual drug into fresh PBS solution” value in data set [3] (0.1 mm thick GEL1 loaded from 6.4 mg/ml ethanol solution, after packaging, for 20 days) is recorded as 0.09 mg/(g of gel·day).
